Experimental data taken from US5561119A, “Glycosylated prodrugs, their method of preparation and their uses” (Laboratoires Hoechst, priority 1991, dated 1996).
In brackets after ≈: the same amount, converted by molar mass. Blank lines part the entries; values can stand above or below the compound they belong to.

Assays:
[1] = incubation of 60 with α-galactosidase from unroasted coffee beans (HPLC); format: biochemical, [550, 560, 561]; conditions: pH 6.8 (0.02M phosphate buffer), 37° C., 0.04 U/ml enzyme, 60 at 660 μg/ml
[2] = Proliferation test (MTT reduction) in L1210 tumoral cells; format: cell-based, [569, 570, 571, 572, 573, 575]; conditions: 72 hours, 37° C.
[3] = hydrolysis of acetates in vivo; conditions: 6, 13 and 48a to 7, 14 and 48b respectively
[4] = hydrolysis of 48b by α-galactosidase (HPLC); format: biochemical, [550, 552, 554]; conditions: placental alpha-galactosidase; α-galactosidase from human placenta, 0.075M N-acetylgalactosamine, 37° C., pH 5 (0.02M phosphate buffer); read-out: half-life of hydrolysis of the glycoside (converted)
stability in plasma = format: in vitro ADME
[5] = cleavability of glycosylated prodrugs by recombinant β-glucuronidase (reversed-phase HPLC); conditions: for half-life: beta-glucuronidase; for t1/2 arm: time for conversion of 50% of the anthracycline/arm compound to active anthracycline, 37° C., 1 U/ml, pH 7.2 to 6.8
[6] = cleavability of glycosylated prodrugs by α-galactosidase from coffee beans (reversed-phase HPLC); format: biochemical, [595, 596, 597]; conditions: 37° C., 1 U/ml, pH 7.2 to 6.8
[7] = beta-glucuronidase

Compound: COc1cccc2c1C(=O)c1c(O)c3c(c(O)c1C2=O)C[C@@](O)(C(C)=O)C[C@@H]3O[C@H]1C[C@H](NC(=O)OCc2ccc(O)c(Cl)c2)[C@H](O)[C@H](C)O1 [deglycosidated derivative 60]
- detection of the deglycosidated derivative [1]: not detected because of its high rate of disappearance

- IC50 [2]: > 1 µg/mL
- hydrolysis in vivo to the deacetylated prodrug [3]: hydrolyzed in vivo
Compound: COc1cccc2c1C(=O)c1c(O)c3c(c(O)c1C2=O)C[C@@](O)(C(C)=O)C[C@@H]3O[C@H]1C[C@H](NC(=O)OCc2ccc(O[C@H]3O[C@H](COC(C)=O)[C@H](OC(C)=O)[C@H](OC(C)=O)[C@H]3OC(C)=O)cc2)[C@H](O)[C@H](C)O1 [derivative 6, N-[4-(2,3,4,6-Tetra-O-acetyl-α-D-galactopyranosyl)benzyloxycarbonyl]daunorubicin]

- IC50 [2]: > 1 µg/mL
Compound: COc1cccc2c1C(=O)c1c(O)c3c(c(O)c1C2=O)C[C@@](O)(C(C)=O)C[C@@H]3O[C@H]1C[C@H](NC(=O)OCc2ccc(O[C@H]3O[C@H](CO)[C@H](O)[C@H](O)[C@H]3O)cc2)[C@H](O)[C@H](C)O1 [derivative 7, N-[4-(α-D-Galactopyranosyl)benzyloxycarbonyl]daunorubicin]

- IC50 [2]: > 1 µg/mL
- hydrolysis in vivo to the deacetylated prodrug [3]: hydrolyzed in vivo
Compound: COc1cccc2c1C(=O)c1c(O)c3c(c(O)c1C2=O)C[C@@](O)(C(C)=O)C[C@@H]3O[C@H]1C[C@H](NC(=O)OCc2ccccc2O[C@H]2O[C@H](COC(C)=O)[C@H](OC(C)=O)[C@H](OC(C)=O)[C@H]2OC(C)=O)[C@H](O)[C@H](C)O1 [derivative 13, N-[2-(2,3,4,6-Tetra-O-acetyl-α-D-galactopyranosyl)benzyloxycarbonyl]daunorubicin]

- IC50 [2]: > 1 µg/mL
Compound: COc1cccc2c1C(=O)c1c(O)c3c(c(O)c1C2=O)C[C@@](O)(C(C)=O)C[C@@H]3O[C@H]1C[C@H](NC(=O)OCc2ccccc2O[C@H]2O[C@H](CO)[C@H](O)[C@H](O)[C@H]2O)[C@H](O)[C@H](C)O1 [derivative 14, N-[2-(α-D-Galactopyranosyl)benzyloxycarbonyl]daunorubicin]

- IC50 [2]: > 10 µg/mL
Compound: COc1cccc2c1C(=O)c1c(O)c3c(c(O)c1C2=O)C[C@@](O)(C(C)=O)C[C@@H]3O[C@H]1C[C@H](NC(=O)OCc2ccc(O[C@@H]3O[C@H](C(=O)O)[C@@H](O)[C@H](O)[C@H]3O)cc2)[C@H](O)[C@H](C)O1 [derivative 22, N-(4-Hydroxybenzyloxycarbonyl)daunorubicin β-D-glucuronide]

- IC50 [2]: > 1 µg/mL
Compound: COc1cccc2c1C(=O)c1c(O)c3c(c(O)c1C2=O)C[C@@](O)(C(C)=O)C[C@@H]3O[C@H]1C[C@H](NC(=O)OCc2ccccc2O[C@@H]2O[C@H](C(=O)O)[C@@H](O)[C@H](O)[C@H]2O)[C@H](O)[C@H](C)O1 [derivative 27c, N-[2-((β-D-Glucopyranosyl)uronic acid)benzyloxycarbonyl]daunorubicin]

- IC50 [2]: > 10 µg/mL
- hydrolysis in vivo to the deacetylated prodrug [3]: hydrolyzed in vivo
Compound: COc1cccc2c1C(=O)c1c(O)c3c(c(O)c1C2=O)C[C@@](O)(C(C)=O)C[C@@H]3O[C@H]1C[C@H](NC(=O)OCc2cc([N+](=O)[O-])ccc2O[C@H]2O[C@H](COC(C)=O)[C@H](OC(C)=O)[C@H](OC(C)=O)[C@H]2OC(C)=O)[C@H](O)[C@H](C)O1 [derivative 48a, N-[2-(2,3,4,6-Tetra-O-acetyl-α-D-galactopyranosyl)-5-nitrobenzyloxycarbonyl]daunorubicin]

- IC50 [2]: > 1 µg/mL
- half-life [4]: 60 min
- stability in plasma (stability in plasma): stable in plasma
Compound: COc1cccc2c1C(=O)c1c(O)c3c(c(O)c1C2=O)C[C@@](O)(C(C)=O)C[C@@H]3O[C@H]1C[C@H](NC(=O)OCc2cc([N+](=O)[O-])ccc2O[C@H]2O[C@H](CO)[C@H](O)[C@H](O)[C@H]2O)[C@H](O)[C@H](C)O1 [derivative 48b, N-[2-(α-D-Galactopyranosyl)-5-nitrobenzyloxycarbonyl]daunorubicin]

Compound: COc1cccc2c1C(=O)c1c(O)c3c(c(O)c1C2=O)C[C@@](O)(C(C)=O)C[C@@H]3O[C@H]1C[C@H](NC(=O)OCc2cc([N+](=O)[O-])ccc2O[C@@H]2O[C@H](C(=O)O)[C@@H](O)[C@H](O)[C@H]2O)[C@H](O)[C@H](C)O1 [derivative 54c, N-[2-((β-D-Glucopyranosyl)uronic acid)-5-nitrobenzyloxycarbonyl]daunorubicin]
- half-life [5]: 41.4 min
- t1/2 arm [5]: 5,30 h

- half-life ([6]; alpha-galactosidase, time for cleavage of 50% of the glycoside, read-out: t1/2 cleavage of the glycoside (converted)): 1.2 min
- t1/2 arm ([6]; time for conversion of 50% of the anthracycline/arm compound to active anthracycline): < 0,08 h
Compound: COc1cccc2c1C(=O)c1c(O)c3c(c(O)c1C2=O)C[C@@](O)(C(C)=O)C[C@@H]3O[C@H]1C[C@H](NC(=O)OCc2ccc(O[C@H]3O[C@H](CO)[C@H](O)[C@H](O)[C@H]3O)c(Cl)c2)[C@H](O)[C@H](C)O1 [derivative 60, N-[3-Chloro-4-(α-D-galactopyranosyl)benzyloxycarbonyl]daunorubicin]

- half-life [5]: 25.2 min
- t1/2 arm [5]: < 0,08 h
Compound: COc1cccc2c1C(=O)c1c(O)c3c(c(O)c1C2=O)C[C@@](O)(C(C)=O)C[C@@H]3O[C@H]1C[C@H](NC(=O)OCc2ccc(O[C@@H]3O[C@H](C(=O)O)[C@@H](O)[C@H](O)[C@H]3O)c([N+](=O)[O-])c2)[C@H](O)[C@H](C)O1 [derivative 64c, N-(4-Hydroxy-3-nitrobenzyloxycarbonyl)daunorubicin β-D-glucuronide]

- half-life [5]: 113 min
- t1/2 arm [5]: 0,75 h
Compound: COc1cc(O[C@@H]2O[C@H](C(=O)O)[C@@H](O)[C@H](O)[C@H]2O)c(COC(=O)N[C@H]2C[C@H](O[C@H]3C[C@](O)(C(C)=O)Cc4c(O)c5c(c(O)c43)C(=O)c3c(OC)cccc3C5=O)O[C@@H](C)[C@H]2O)cc1[N+](=O)[O-] [derivative 68c, N-[4-Methoxy-5-nitro-2-((β-D-glucopyranosyl)uronic acid)benzyloxycarbonyl]daunorubicin]

- t1/2 cleavage of the glycoside [7]: 0,92 h
Compound: COc1cccc2c1C(=O)c1c(O)c3c(c(O)c1C2=O)CC(O)(C(=O)CO)CC3OC1CC(NC(=O)OCc2ccc(OC3OC(C(=O)O)C(O)C(O)C3O)c([N+](=O)[O-])c2)C(O)C(C)O1 [derivative 70c, N-[4-hydroxy-3-nitro-benzyloxy-carbonyl) doxorubicin β-D-glucuronide]

Compound: COc1cccc2c1C(=O)c1c(O)c3c(c(O)c1C2=O)C[C@@](O)(C(C)=O)C[C@@H]3O[C@H]1C[C@H](NC(=O)OCc2cc(Cl)ccc2O[C@@H]2O[C@H](C(=O)O)[C@@H](O)[C@H](O)[C@H]2O)[C@H](O)[C@H](C)O1 [derivative 82c, N-[2-((β-D-glucopyranosyl)uronic acid)-5-chlorobenzyloxycarbonyl]daunorubicin]
- half-life [5]: 244 min
- t1/2 arm [5]: 12,00 h

Compound: COc1cccc2c1C(=O)c1c(O)c3c(c(O)c1C2=O)C[C@@](O)(C(=O)CO)C[C@@H]3O[C@H]1C[C@H](N)[C@H](O)[C@H](C)O1 [doxorubicin, reference compound]
- IC50 [2]: 0.02 µg/mL (≈ 0.0368 µM)
